Assay results: patent US6737383B1, “Herbicidal oxadiazolidines” (priority 1999, dated 2004)

What was measured:
[1] = tested on: rice; experiment: Test B flood test rice; assay type: in vivo, Oryza sativa
In short: (§1)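 Flood test on plants grown to the 2-leaf stage; treated plants kept in greenhouse twelve to sixteen days, then visually rated against controls on a 0 (no effect) to 10 (complete control) scale.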

[2] = tested on: morningglory; experiment: Test B pre/postemergence morningglory; assay type: in vivo, Ipomoea hederacea
In short: (§2)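 Herbicidal effect was estimated by eye on a ten-point control scale after plants spent twelve to sixteen days in a greenhouse following soil or foliar treatment. Foliar sprays targeted plants at one to four leaves; all doses were formulated in a non-phytotoxic solvent with surfactant.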

[3] = tested on: sugar beet; experiment: Test B pre/postemergence sugar beet; assay type: in vivo, Beta vulgaris
In short: as §2

[4] = tested on: soybean; experiment: Test B pre/postemergence soybean; assay type: in vivo, Glycine max
In short: as §2

[5] = tested on: blackgrass; experiment: Test B pre/postemergence blackgrass; assay type: in vivo, Alopecurus myosuroides
In short: as §2

[6] = tested on: wheat; experiment: Test B pre/postemergence wheat; assay type: in vivo, Triticum aestivum
In short: as §2

[7] = tested on: smallflower flatsedge; experiment: Test B flood test smallflower flatsedge; assay type: in vivo, Cyperus difformis
In short: as §1

[8] = tested on: rape; experiment: Test B pre/postemergence rape; assay type: in vivo, Brassica napus
In short: as §2

[9] = tested on: bedstraw; experiment: Test B pre/postemergence bedstraw; assay type: in vivo, Galium aparine
In short: as §2

[10] = tested on: wild oat; experiment: Test B pre/postemergence wild oat; assay type: in vivo, Avena fatua
In short: as §2

[11] = tested on: velvetleaf; experiment: Test B pre/postemergence velvetleaf; assay type: in vivo, Abutilon theophrasti
In short: as §2

[12] = tested on: duck salad; experiment: Test B flood test duck salad; assay type: in vivo, Heteranthera limosa
In short: as §1

[13] = tested on: pigweed; experiment: Test B pre/postemergence pigweed; assay type: in vivo, Amaranthus retroflexus
In short: as §2

[14] = tested on: purple nutsedge; experiment: Test B pre/postemergence purple nutsedge; assay type: in vivo, Cyperus rotundus
In short: as §2

[15] = tested on: giant foxtail; experiment: Test B pre/postemergence giant foxtail; assay type: in vivo, Setaria faberii
In short: as §2

[16] = tested on: bamyardgrass; experiment: Test B flood test barnyardgrass; assay type: in vivo, Echinochloa crus-galli
In short: as §1

[17] = Rate 62 g/ha, headed Pre-emergence (flood test species), scale 0 to 10 (0 no effect, 10 complete control)
[18] = Rate 125 g/ha, Pre-emergence, flood test species, scale 0 to 10 where 0 is no effect and 10 is complete control
[19] = Rate 250 g/ha, Pre-emergence, flood-test species, scale 0 to 10, 0 is no effect, 10 is complete control
[20] = Rate 500 g/ha, Pre-emergence, flood test species, scale 0 to 10 (0 no effect, 10 complete control)
[21] = Preemergence, Rate 62 g/ha, scale of 0 to 10 where 0 is no effect and 10 is complete control
[22] = Preemergence, Rate 250 g/ha, scale of 0 to 10 where 0 is no effect and 10 is complete control
[23] = Preemergence, Rate 500 g/ha, scale of 0 to 10 where 0 is no effect and 10 is complete control
[24] = Rate 62 g/ha, Postemergence, scale 0 to 10 (0 no effect, 10 complete control)
[25] = Rate 125 g/ha, Postemergence, scale of 0 to 10 where 0 is no effect and 10 is complete control
[26] = Rate 250 g/ha, Postemergence, scale of 0 to 10 where 0 is no effect and 10 is complete control

CCN(C(=O)n1oc(=O)n(Cc2ccco2)c1=O)C1CCCCC1 [Compound 312]
Rice plant response rating [1, 17]: 0 | Rice plant response rating [1, 18]: 0 | Rice plant response rating [1, 19]: 0 | Rice plant response rating [1, 20]: 0 | Morningglory plant response rating [2, 21]: 0 | Morningglory plant response rating (0 to 10 scale) ([2]; Preemergence, Rate 125 g/ha): 0 | Morningglory plant response rating [2, 22]: 0 | Morningglory plant response rating [2, 23]: 0 | Morningglory plant response rating [2, 24]: 0 | Morningglory plant response rating [2, 25]: 0 | Plant response rating, Morningglory [2, 26]: 0 | Sugarbeets plant response rating [3, 21]: 0 | Sugarbeets plant response rating (0 to 10 scale) ([3]; Preemergence, Rate 125 g/ha): 0 | Sugarbeets plant response rating [3, 22]: 0 | Sugarbeets plant response rating [3, 23]: 0 | Sugarbeets plant response rating [3, 24]: 0 | Sugarbeets plant response rating [3, 25]: 0 | Plant response rating, Sugarbeets [3, 26]: 0 | Soybean plant response rating [4, 21]: 0 | Soybean plant response rating (0 to 10 scale) ([4]; Preemergence, Rate 125 g/ha): 0 | Soybean plant response rating [4, 22]: 0 | Soybean plant response rating [4, 23]: 0 | Soybean plant response rating [4, 24]: 2 | Soybean plant response rating [4, 25]: 2 | Plant response rating, Soybean [4, 26]: 3 | Blackgrass plant response rating [5, 21]: 0 | Blackgrass plant response rating (0 to 10 scale) ([5]; Preemergence, Rate 125 g/ha): 0 | Blackgrass plant response rating [5, 22]: 0 | Blackgrass plant response rating [5, 23]: 0 | Blackgrass plant response rating [5, 24]: 0 | Blackgrass plant response rating [5, 25]: 0 | Plant response rating, Blackgrass [5, 26]: 0 | Blackgrass plant response rating ([5]; Rate 500 g/ha, Postemergence, scale 0 to 10, 0 no effect, 10 complete control): 0 | Wheat plant response rating [6, 21]: 0 | Wheat plant response rating (0 to 10 scale) ([6]; Preemergence, Rate 125 g/ha): 0 | Wheat plant response rating [6, 22]: 0 | Wheat plant response rating [6, 23]: 0 | Wheat plant response rating [6, 24]: 0 | Wheat plant response rating [6, 25]: 0 | Plant response rating, Wheat [6, 26]: 0 | S. Flatsedge plant response rating [7, 17]: 0 | S. Flatsedge plant response rating [7, 18]: 0 | S. Flatsedge plant response rating [7, 19]: 0 | S. Flatsedge plant response rating [7, 20]: 0 | Rape plant response rating [8, 21]: 0 | Rape plant response rating (0 to 10 scale) ([8]; Preemergence, Rate 125 g/ha): 0 | Rape plant response rating [8, 22]: 0 | Rape plant response rating [8, 23]: 0 | Rape plant response rating [8, 24]: 0 | Rape plant response rating [8, 25]: 0 | Plant response rating, Rape [8, 26]: 0 | Bedstraw plant response rating [9, 21]: 0 | Bedstraw plant response rating (0 to 10 scale) ([9]; Preemergence, Rate 125 g/ha): 0 | Bedstraw plant response rating [9, 22]: 0 | Bedstraw plant response rating [9, 23]: 0 | Bedstraw plant response rating [9, 24]: 0 | Bedstraw plant response rating [9, 25]: 0 | Plant response rating, Bedstraw [9, 26]: 0 | Wild oats plant response rating [10, 21]: 0 | Wild oats plant response rating (0 to 10 scale) ([10]; Preemergence, Rate 125 g/ha): 0 | Wild oats plant response rating [10, 22]: 0 | Wild oats plant response rating [10, 23]: 0 | Wild oats plant response rating [10, 24]: 0 | Wild oats plant response rating [10, 25]: 0 | Plant response rating, Wild oats [10, 26]: 0 | Velvetleaf plant response rating [11, 21]: 0 | Velvetleaf plant response rating (0 to 10 scale) ([11]; Preemergence, Rate 125 g/ha): 0 | Velvetleaf plant response rating [11, 22]: 0 | Velvetleaf plant response rating [11, 23]: 0 | Velvetleaf plant response rating [11, 24]: 0 | Velvetleaf plant response rating [11, 25]: 0 | Plant response rating, Velvetleaf [11, 26]: 0 | Ducksalad plant response rating [12, 17]: 0 | Ducksalad plant response rating [12, 18]: 0 | Ducksalad plant response rating [12, 19]: 0 | Ducksalad plant response rating [12, 20]: 0 | Redroot pigweed plant response rating [13, 21]: 0 | Redroot pigweed plant response rating (0 to 10 scale) ([13]; Preemergence, Rate 125 g/ha): 0 | Redroot pigweed plant response rating [13, 22]: 0 | Redroot pigweed plant response rating [13, 23]: 0 | Redroot pigweed plant response rating [13, 24]: 0 | Redroot pigweed plant response rating [13, 25]: 0 | Plant response rating, Redroot pigweed [13, 26]: 0 | Nutsedge plant response rating [14, 21]: 0 | Nutsedge plant response rating (0 to 10 scale) ([14]; Preemergence, Rate 125 g/ha): 0 | Nutsedge plant response rating [14, 22]: 0 | Nutsedge plant response rating [14, 23]: 0 | Nutsedge plant response rating [14, 24]: 0 | Nutsedge plant response rating [14, 25]: 0 | Plant response rating, Nutsedge [14, 26]: 0 | Giant foxtail plant response rating [15, 21]: 0 | Giant foxtail plant response rating (0 to 10 scale) ([15]; Preemergence, Rate 125 g/ha): 0 | Giant foxtail plant response rating [15, 22]: 0 | Giant foxtail plant response rating [15, 23]: 0 | Giant foxtail plant response rating [15, 24]: 0 | Giant foxtail plant response rating [15, 25]: 0 | Plant response rating, Giant foxtail [15, 26]: 0 | Barnyardgrass plant response rating [16, 17]: 0 | Barnyardgrass plant response rating [16, 18]: 0 | Barnyardgrass plant response rating [16, 19]: 0 | Barnyardgrass plant response rating [16, 20]: 0
